# Measured values: patent US9340532B2, “Methods and compositions for inhibiting CNKSR1” (PHUSIS THERAPEUTICS, INC., priority 2012, dated 2016)
# Entries after “also recorded” stand apart in the source; their conditions may differ. Read-outs that look alike come from different tables or passages of the source.
# Assays:
# rHuman carboxyesterase 1 = target: T1, rHuman carboxyesterase 1 (Homo sapiens, UniProt P23141); experiment: Stability with carboxyesterase 1; assay type: in vitro ADME; settings: rHuman carboxyesterase 1 24 U/ml, pH 7.4, 37° C.
# T1 sequence (P23141 18-567): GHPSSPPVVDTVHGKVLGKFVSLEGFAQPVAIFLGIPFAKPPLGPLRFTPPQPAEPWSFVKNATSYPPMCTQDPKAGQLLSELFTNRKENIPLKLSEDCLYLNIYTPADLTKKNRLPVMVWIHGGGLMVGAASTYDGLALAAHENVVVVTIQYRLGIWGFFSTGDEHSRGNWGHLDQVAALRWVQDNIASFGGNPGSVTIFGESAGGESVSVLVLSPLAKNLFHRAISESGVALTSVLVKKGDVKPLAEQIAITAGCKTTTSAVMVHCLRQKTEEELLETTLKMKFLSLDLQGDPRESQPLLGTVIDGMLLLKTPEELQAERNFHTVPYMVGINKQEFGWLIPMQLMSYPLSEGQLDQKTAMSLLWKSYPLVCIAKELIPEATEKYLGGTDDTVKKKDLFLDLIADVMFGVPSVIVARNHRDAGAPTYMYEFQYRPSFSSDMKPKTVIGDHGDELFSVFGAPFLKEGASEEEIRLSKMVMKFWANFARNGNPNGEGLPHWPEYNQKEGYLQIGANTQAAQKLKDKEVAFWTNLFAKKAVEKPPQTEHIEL
# [1] = test system: mut-KRAS NSCLC cell lines; experiment: Screening against NSCLC cell line panel, mut-KRAS lines; assay type: cell-based
# Method: The isogenic KRAS lines harboring G12D, G12C, and G12V were obtained from Horizon Discovery labs on a one year lease. These cells were cultured in McCoys media with 10% FBS to 80% confluency. Cells were then released from flasks via trypsinization and plated into 96-well plates at an initial density range of 2000 cells per well. Cells were allowed 24 hours to attach, and then the agents were added to the culture media at a range of concentrations from 0-100 μM. Cells were incubated for 72 hours with the drugs, and then viability was assessed using an MTS viability assay. Cells were exposed to MTS reagent (Promega) dissolved in PBS (Hyclone) at a concentration of 200 μL reagent/mL media for 2 hours. Absorbance was then read at 490 nm, and viability was expressed as a percentage normalized between the negative control (no cells plated) and the condition of cells with no drug added (100% viability) normalized as the upper limit of viability.
# Our panel of 30 cell lines and an extensive characterization were obtained from Dr. John Minna (UTSW). All cell lines were cultured in RPMI 1640 with 10% FBS. Cells were treated with concentrations of agents at concentrations 0.01 to 50 μM and evaluated as described above. IC50's were determined using Excelfit.
# PH-domain of Tiam1 = experiment: SPR binding to expressed PH-domain of Tiam1
# Method: (§1) In embodiments, the binding of identified compounds to the crystal structures of other PH-domain signaling proteins, AKT, PDPK1, Btk, and Tiam1 can be predicted. In such embodiments, the Kds exceed about 100 μM. In other embodiments, SPR can measure the binding of identified compounds to the expressed PH-domains of AKT, PDPK1 and Tiam1. […] Thus, the identified compounds appear have, at least, about 50 to about 100 fold selectivity for CNKSR1 compared to the other PH-domains studied.
# (§2) A commercially available docking package, GOLD (GOLD [3.2], CCDC: Cambridge, UK, 2007) was used to evaluate the docking of compounds 1-7 into the binding pocket, see e.g. Table 5. Other docking was performed using modeling algorithms with state-of-the-art commercial drug discovery software (Schrodinger suite). GLIDE was chosen as the docking algorithm used to select and optimize compounds, providing a GlideScore as a rough estimate of binding affinity that was used to rank and select the best compounds. Additionally, ligand-based approaches provided an alternative to structure based drug discovery. Ligand-based virtual screening methodologies can take into account shape and electrostatics (like ROCS) and the pharmacophoric features (acceptor, donor, hydrophobic, aromatic, etc.) of its functional groups. […]
# CNK1 PH-domain (CNKSR1) = target: T2, CNK1 PH-domain (CNKSR1) (Homo sapiens, UniProt Q969H4); experiment: SPR binding assay (Biacore T100), CNK1 PH-domain
# T2 construct: The PH-domain His-fusion proteins (CNK1 and AKT1) were expressed and immobilized on a NTA chip; made in house
# T2 sequence (Q969H4 403-502 limits assumed): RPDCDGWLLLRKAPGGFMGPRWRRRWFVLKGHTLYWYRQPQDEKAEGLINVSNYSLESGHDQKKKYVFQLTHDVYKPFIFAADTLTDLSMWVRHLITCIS
# Procedure, shortened: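 His-tagged CNK1 PH-domain was captured on an NTA chip to ≤10,000 RU. Small-molecule analytes were injected at 50 μM to 0.010 μM at 30 μL/min, with 1-5% (v/v) DMSO in samples and running buffer. Binding was measured by surface plasmon resonance.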
# PH-domain of PDPK1 = target: T3, PH-domain of PDPK1 (Homo sapiens, UniProt O15530); experiment: SPR binding to expressed PH-domain of PDPK1
# T3 construct: made in house
# T3 sequence (O15530 459-550 limits assumed): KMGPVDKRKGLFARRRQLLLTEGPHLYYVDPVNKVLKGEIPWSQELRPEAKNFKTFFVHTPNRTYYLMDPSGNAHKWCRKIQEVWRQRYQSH
# Method: as §1, §2
# PH-domain of AKT = target: T4, PH-domain of AKT (Homo sapiens, UniProt P31749); experiment: SPR binding to expressed PH-domain of AKT
# T4 construct: made in house
# T4 sequence (P31749 5-108 limits assumed): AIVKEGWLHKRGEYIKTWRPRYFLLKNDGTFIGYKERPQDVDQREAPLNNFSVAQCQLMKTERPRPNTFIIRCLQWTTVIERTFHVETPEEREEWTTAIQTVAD
# Method: as §1, §2
# [2] = Stability in biological media: dog plasma; assay type: in vitro ADME; settings: Dog plasma (beagle), 50 μg/ml, 37° C.
compound,measurement,setting,value
CCOC(=O)Cc1nn(Cc2nc(-c3ccc(C)cc3)cs2)c(=O)c2ccccc12 [Compound 7],Half life,rHuman carboxyesterase 1,0.317 h
same,inhibition of mut-KRAS cell growth (in words),[1]; FIG. 3 and FIG. 5,low micromolar inhibition; also recorded: as effectively as siRNA to KRAS or CNKSR1
same,IC50,"[1]; Table 5, read-out: Mean IC50 mut-KRAS",23.9 ± 2.5 µM
same,IC50,"[1]; Table 6, mean of 3 mut-KRAS lines, read-out: NSCL cell line cytotoxicity IC50 mut-KRAS",49 µM
same,SPR binding to PH-domain of Tiam1,PH-domain of Tiam1,No measurable binding
same,Kd,"CNK1 PH-domain (CNKSR1); Table 6, read-out: CNKS KD",3.2 µM
same,Surface Plasmon Resonance CNKSR1 binding (RU max),CNK1 PH-domain (CNKSR1); date 11 26 13,5.019 RU * 100/Da
same,Surface Plasmon Resonance CNKSR1 stability (RU max post-injection),CNK1 PH-domain (CNKSR1); date 11 26 13,0.761 RU * 100/Da
same,Surface Plasmon Resonance CNKSR1 binding (RU max),CNK1 PH-domain (CNKSR1); date 12 09 13,0.205 RU * 100/Da
same,Surface Plasmon Resonance CNKSR1 stability (RU max post-injection),CNK1 PH-domain (CNKSR1); date 12 09 13,0.798 RU * 100/Da
same,SPR binding to PH-domain of PDPK1,PH-domain of PDPK1,No measurable binding
same,SPR binding to PH-domain of AKT,PH-domain of AKT,No measurable binding
same,Half life,[2],9.3 h
